Measured values from patent publication US6890736B1, “Methods for producing proteins in cultured cells” (Immunex Corporation, priority 2002, dated 2005).

How the values were obtained:
[1] = Example 2: cell number and viability; format: cell-based, Chinese hamster; settings: Chinese hamster; for viability at 6 day, 10 μM / viability at 8 day, 10 μM / viability at 0 day, 10 μM / viability at 3 day, 10 μM: 10 μM decitabine; for viability at 6 day, 10 μM / viability at 6 day, 15 μM / viability at 6 day, 20 μM: day 6; for viability at 8 day, 10 μM / viability at 8 day, 15 μM / viability at 8 day, 20 μM: day 8; for viability at 0 day, 15 μM / viability at 3 day, 15 μM / viability at 6 day, 15 μM / viability at 8 day, 15 μM: 15 μM decitabine; for viability at 0 day, 15 μM / viability at 0 day, 20 μM / viability at 0 day, 10 μM: day 0; for viability at 3 day, 15 μM / viability at 3 day, 20 μM / viability at 3 day, 10 μM: day 3; for viability at 0 day, 20 μM / viability at 3 day, 20 μM / viability at 6 day, 20 μM / viability at 8 day, 20 μM: 20 μM decitabine
Procedure: (§1) About 2×10^6 cells of cell line 25H9 were inoculated into 30 milliliters of serum-free medium and incubated at the temperatures indicated in Table 1 in vented shake flasks. At the times indicated in Table 1, samples were taken from each flask to determine IL-1R-II titer, cell number, and cell viability. IL-1R-II protein titer was determined by ELISA assay. Cell number was determined by counting cells in a hemocytometer. Cell viability was determined by trypan blue staining and counting stained cells in a hemocytometer. Cumulative viable cell density (CVCD) is the area under the curve of a plot of the viable cell density versus time (in units of cells/ml/day). Productivity (pg of IL-1R-II/cell/day) was determined by dividing the protein titer on a particular day by the CVCD on the same day. Cells were fed with amino acids on days 2 and 5, and dextrose was added periodically in order to maintain levels above 2.0 g/L. All samples were done in duplicate, and the data shown is an average value.
(§2) To determine an optimum temperature and decitabine concentration, three temperatures (30° C., 31° C., and 32° C.) and three decitabine concentrations (10 μM, 15 μM, and 20 μM) were tested. A 31° C. culture containing 0.5 mM sodium butyrate was grown as a control. […] See e.g. International Application Nos. WO 89/06686 and WO 87/05626. The experiment was performed as in Example 1 except that the inducer concentrations, temperatures, and days at which data was collected are as indicated in Table 2 and FIG. 1.

[2] = tested on: cell line 25H9 (CHO cells); test: Example 2: cell number and viability; format: cell-based, Chinese hamster
Procedure: as §1, §2

[3] = CHO cell line 25H9 producing IL-1R-II, 30° C.
[4] = cell line 25H9 (CHO cells), 30° C.
[5] = cell line 25H9 (CHO cells), 31° C.
[6] = cell line 25H9 (CHO cells), 32° C.
[7] = 30° C., 10 μM decitabine, day 0
[8] = 30° C., 10 μM decitabine, day 3
[9] = 30° C., 10 μM decitabine, day 6
[10] = 30° C., 10 μM decitabine, day 8
[11] = 30° C., 15 μM decitabine, day 0
[12] = 30° C., 15 μM decitabine, day 3
[13] = 30° C., 15 μM decitabine, day 6
[14] = 30° C., 15 μM decitabine, day 8
[15] = 30° C., 20 μM decitabine, day 0
[16] = 30° C., 20 μM decitabine, day 3
[17] = 30° C., 20 μM decitabine, day 6
[18] = 30° C., 20 μM decitabine, day 8
[19] = 31° C., 10 μM decitabine, day 0
[20] = 31° C., 10 μM decitabine, day 3
[21] = 31° C., 10 μM decitabine, day 6
[22] = 31° C., 10 μM decitabine, day 8
[23] = 31° C., 15 μM decitabine, day 0
[24] = 31° C., 15 μM decitabine, day 3
[25] = 31° C., 15 μM decitabine, day 6
[26] = 31° C., 15 μM decitabine, day 8
[27] = 31° C., 20 μM decitabine, day 0
[28] = 31° C., 20 μM decitabine, day 3
[29] = 31° C., 20 μM decitabine, day 6
[30] = 31° C., 20 μM decitabine, day 8
[31] = 32° C., 10 μM decitabine, day 0
[32] = 32° C., 10 μM decitabine, day 3
[33] = 32° C., 10 μM decitabine, day 6
[34] = 32° C., 10 μM decitabine, day 8
[35] = 32° C., 15 μM decitabine, day 0
[36] = 32° C., 15 μM decitabine, day 3
[37] = 32° C., 15 μM decitabine, day 6
[38] = 32° C., 15 μM decitabine, day 8
[39] = 32° C., 20 μM decitabine, day 0
[40] = 32° C., 20 μM decitabine, day 3
[41] = 32° C., 20 μM decitabine, day 6
[42] = 32° C., 20 μM decitabine, day 8

In the case of `Nc1ncn([C@H]2C[C@H](O)[C@@H](CO)O2)c(=O)n1` [decitabine, 5-aza-2′-deoxycytidine], the viability at 6 day, 10 μM [1, 3] is reported as 70.3%, the viability at 8 day, 10 μM [1, 3] is reported as 49% and the viability at 0 day, 15 μM [1, 3] is reported as 94.2%. It also gave a viability at 3 day, 15 μM [1, 3] of 88.9%, a viability at 6 day, 15 μM [1, 3] of 85.9% and a viability at 8 day, 15 μM [1, 3] of 33.2%. It also gave a viability at 0 day, 20 μM [1, 3] of 94.2%, a viability at 3 day, 20 μM [1, 3] of 93.3% and a viability at 6 day, 20 μM [1, 3] of 77%. It also gave a viability at 8 day, 20 μM [1, 3] of 48.4%, a viability at 0 day, 10 μM ([1]; CHO cell line 25H9 producing IL-1R-II, 31° C.) of 94.2% and a viability at 0 day, 10 μM [1, 4] of 94.2%. It also gave a viability at 3 day, 10 μM [1, 4] of 91.8%, a viability at 3 day, 10 μM [1, 5] of 89.3% and a viability at 6 day, 10 μM [1, 5] of 79.6%. It also gave a viability at 8 day, 10 μM [1, 5] of 63.5%, a viability at 0 day, 15 μM [1, 5] of 94.2% and a viability at 3 day, 15 μM [1, 5] of 97.6%. The viability at 6 day, 15 μM [1, 5] was 78.9%, the viability at 8 day, 15 μM [1, 5] was 57.6% and the viability at 0 day, 20 μM [1, 5] was 94.2%. It also gave a viability at 3 day, 20 μM [1, 5] of 87.7%, a viability at 6 day, 20 μM [1, 5] of 77.9% and a viability at 8 day, 20 μM [1, 5] of 57.2%. The viability at 0 day, 10 μM [1, 6] was 94.2%, the viability at 3 day, 10 μM [1, 6] was 85.4% and the viability at 6 day, 10 μM [1, 6] was 71.7%. It also gave a viability at 8 day, 10 μM [1, 6] of 42.3%, a viability at 0 day, 15 μM [1, 6] of 94.2% and a viability at 3 day, 15 μM [1, 6] of 87.6%. It also gave a viability at 6 day, 15 μM [1, 6] of 65.4%, a viability at 8 day, 15 μM [1, 6] of 36.1% and a viability at 0 day, 20 μM [1, 6] of 94.2%. The viability at 3 day, 20 μM [1, 6] was 89.1%, the viability at 6 day, 20 μM [1, 6] was 64.7% and the viability at 8 day, 20 μM [1, 6] was 41.1%. For the same compound, the “Cumulative Viable Cell Density” value [2, 7] was 0 mL⁻¹ day⁻¹, the “Viable Cell Density” value [2, 7] was 2e+06 mL⁻¹ and the “Cumulative Viable Cell Density” value [2, 8] was 7.4e+06 mL⁻¹ day⁻¹. For the same compound, the “Viable Cell Density” value [2, 8] was 3e+06 mL⁻¹, the “Cumulative Viable Cell Density” value [2, 9] was 1.43e+07 mL⁻¹ day⁻¹ and the “Viable Cell Density” value [2, 9] was 1.7e+06 mL⁻¹. The “Cumulative Viable Cell Density” value [2, 10] was 1.81e+07 mL⁻¹ day⁻¹, the “Viable Cell Density” value [2, 10] was 2.1e+06 mL⁻¹ and the “Cumulative Viable Cell Density” value [2, 11] was 0 mL⁻¹ day⁻¹. For the same compound, the “Viable Cell Density” value [2, 11] was 2e+06 mL⁻¹, the “Cumulative Viable Cell Density” value [2, 12] was 6.8e+06 mL⁻¹ day⁻¹ and the “Viable Cell Density” value [2, 12] was 2.6e+06 mL⁻¹. For the same compound, the “Cumulative Viable Cell Density” value [2, 13] was 1.4e+07 mL⁻¹ day⁻¹, the “Viable Cell Density” value [2, 13] was 2.2e+06 mL⁻¹ and the “Cumulative Viable Cell Density” value [2, 14] was 1.81e+07 mL⁻¹ day⁻¹. For the same compound, the “Viable Cell Density” value [2, 14] was 1.9e+06 mL⁻¹, the “Cumulative Viable Cell Density” value [2, 15] was 0 mL⁻¹ day⁻¹ and the “Viable Cell Density” value [2, 15] was 2e+06 mL⁻¹. The “Cumulative Viable Cell Density” value [2, 16] was 7.9e+06 mL⁻¹ day⁻¹, the “Viable Cell Density” value [2, 16] was 3.3e+06 mL⁻¹ and the “Cumulative Viable Cell Density” value [2, 17] was 1.63e+07 mL⁻¹ day⁻¹. For the same compound, the “Viable Cell Density” value [2, 17] was 2.3e+06 mL⁻¹, the “Cumulative Viable Cell Density” value [2, 18] was 2.04e+07 mL⁻¹ day⁻¹ and the “Viable Cell Density” value [2, 18] was 1.8e+06 mL⁻¹. The “Cumulative Viable Cell Density” value [2, 19] was 0 mL⁻¹ day⁻¹, the “Viable Cell Density” value [2, 19] was 2e+06 mL⁻¹ and the “Cumulative Viable Cell Density” value [2, 20] was 8.7e+06 mL⁻¹ day⁻¹. The “Viable Cell Density” value [2, 20] was 3.9e+06 mL⁻¹, the “Cumulative Viable Cell Density” value [2, 21] was 2.1e+07 mL⁻¹ day⁻¹ and the “Viable Cell Density” value [2, 21] was 4.3e+06 mL⁻¹. For the same compound, the “Cumulative Viable Cell Density” value [2, 22] was 2.85e+07 mL⁻¹ day⁻¹, the “Viable Cell Density” value [2, 22] was 3.2e+06 mL⁻¹ and the “Cumulative Viable Cell Density” value [2, 23] was 0 mL⁻¹ day⁻¹. For the same compound, the “Viable Cell Density” value [2, 23] was 2e+06 mL⁻¹, the “Cumulative Viable Cell Density” value [2, 24] was 7.9e+06 mL⁻¹ day⁻¹ and the “Viable Cell Density” value [2, 24] was 3.3e+06 mL⁻¹. For the same compound, the “Cumulative Viable Cell Density” value [2, 25] was 1.92e+07 mL⁻¹ day⁻¹, the “Viable Cell Density” value [2, 25] was 4.2e+06 mL⁻¹ and the “Cumulative Viable Cell Density” value [2, 26] was 2.58e+07 mL⁻¹ day⁻¹. The “Viable Cell Density” value [2, 26] was 2.4e+06 mL⁻¹, the “Cumulative Viable Cell Density” value [2, 27] was 0 mL⁻¹ day⁻¹ and the “Viable Cell Density” value [2, 27] was 2e+06 mL⁻¹. For the same compound, the “Cumulative Viable Cell Density” value [2, 28] was 9.2e+06 mL⁻¹ day⁻¹, the “Viable Cell Density” value [2, 28] was 4.2e+06 mL⁻¹ and the “Cumulative Viable Cell Density” value [2, 29] was 2.17e+07 mL⁻¹ day⁻¹. For the same compound, the “Viable Cell Density” value [2, 29] was 4.2e+06 mL⁻¹, the “Cumulative Viable Cell Density” value [2, 30] was 2.86e+07 mL⁻¹ day⁻¹ and the “Viable Cell Density” value [2, 30] was 2.7e+06 mL⁻¹. The “Cumulative Viable Cell Density” value [2, 31] was 0 mL⁻¹ day⁻¹, the “Viable Cell Density” value [2, 31] was 2e+06 mL⁻¹ and the “Cumulative Viable Cell Density” value [2, 32] was 8e+06 mL⁻¹ day⁻¹. The “Viable Cell Density” value [2, 32] was 3.4e+06 mL⁻¹, the “Cumulative Viable Cell Density” value [2, 33] was 1.9e+07 mL⁻¹ day⁻¹ and the “Viable Cell Density” value [2, 33] was 3.9e+06 mL⁻¹. For the same compound, the “Cumulative Viable Cell Density” value [2, 34] was 2.49e+07 mL⁻¹ day⁻¹, the “Viable Cell Density” value [2, 34] was 2.1e+06 mL⁻¹ and the “Cumulative Viable Cell Density” value [2, 35] was 0 mL⁻¹ day⁻¹. For the same compound, the “Viable Cell Density” value [2, 35] was 2e+06 mL⁻¹, the “Cumulative Viable Cell Density” value [2, 36] was 8e+06 mL⁻¹ day⁻¹ and the “Viable Cell Density” value [2, 36] was 3.4e+06 mL⁻¹. The “Cumulative Viable Cell Density” value [2, 37] was 1.82e+07 mL⁻¹ day⁻¹, the “Viable Cell Density” value [2, 37] was 3.4e+06 mL⁻¹ and the “Cumulative Viable Cell Density” value [2, 38] was 2.41e+07 mL⁻¹ day⁻¹. For the same compound, the “Viable Cell Density” value [2, 38] was 2.5e+06 mL⁻¹, the “Cumulative Viable Cell Density” value [2, 39] was 0 mL⁻¹ day⁻¹ and the “Viable Cell Density” value [2, 39] was 2e+06 mL⁻¹. The “Cumulative Viable Cell Density” value [2, 40] was 8.3e+06 mL⁻¹ day⁻¹, the “Viable Cell Density” value [2, 40] was 3.6e+06 mL⁻¹ and the “Cumulative Viable Cell Density” value [2, 41] was 1.87e+07 mL⁻¹ day⁻¹. The “Viable Cell Density” value [2, 41] was 3.3e+06 mL⁻¹, the “Cumulative Viable Cell Density” value [2, 42] was 2.36e+07 mL⁻¹ day⁻¹ and the “Viable Cell Density” value [2, 42] was 1.6e+06 mL⁻¹.
